Laboratory results published in paper PMC3139250 (Phytochemistry letters, 2011).

Molecular target: mitochondrial ETC complex I (NADH-ubiquinone oxidoreductase) (Homo sapiens, UniProt O75251+O75306+P03886)
Assay: Oxygen consumption
Format: cell-based

Structure (SMILES): CC(C)(O)[C@H]1CC[C@](C)([C@@H](O)CC[C@](C)(O)[C@H]2CC[C@H]3O[C@@H]([C@]4(C)CC[C@@H](Br)C(C)(C)O4)CC[C@]3(C)O2)O1 [compound 1, thyrsiferol]
- IC50: 3 µM
